Measured values published in patent US8921567B2, “Process for preparing N-substituted 1H-pyrazole-5-carbonylchloride compounds” (BASF SE, priority 2011, dated 2014).

Test: log P determination via capillary electrophorese on a cePro9600 from CombiSep
Type: physicochemical
Conditions: pH = 10.0
Experimental: log P determinations were performed via capillary electrophorese on a cePro9600™ from CombiSep.

Row | logP | Compound
1 | logP: 3.3 [pH = 10.0]; | Cc1cc(Cl)cc(C(=O)N=S(C(C)C)C(C)C)c1NC(=O)c1cc(C(F)(F)F)nn1-c1ncccc1Cl [compound 24]
2 | logP: 2.2 [pH = 10.0]; | Cc1cccc(C(=O)N=S2CCSC2)c1NC(=O)c1cc(C(F)(F)F)nn1-c1ncccc1Cl (centres unmarked) [Example 208]
